From paper PMC6328172, “5-HT2 receptor binding, functional activity and selectivity in N-benzyltryptamines” (PLoS ONE, 2019)
Values joined by “and” are separate entries in the source; they are usually repeats but may differ in a detail not shown here. Equal values may be shown once. Where a name gives a salt, the structure may show the parent alone. Read-outs that look alike come from different tables or passages of the source.

Columns and labels:
head twitch response [1] = details: cited from earlier work
head twitch response [2] = assay: Mouse head twitch response (HTR) assay (literature); format: in vivo; details: from the HTR ED50 values
5-HT2A receptor [3] = details: described by Nichols; cited from earlier work
human 5-HT2A receptor [4] = molecular target: T1, human 5-HT2A receptor (Homo sapiens, UniProt P28223); assay: Competition binding to the human 5-HT2A receptor ([3H]ketanserin, CHO-5-HT2A membranes)
T1 construct: expressed in transfected cells; host or cells: CHO (CHO-5-HT2A cell line)
T1 sequence (P28223 whole entry): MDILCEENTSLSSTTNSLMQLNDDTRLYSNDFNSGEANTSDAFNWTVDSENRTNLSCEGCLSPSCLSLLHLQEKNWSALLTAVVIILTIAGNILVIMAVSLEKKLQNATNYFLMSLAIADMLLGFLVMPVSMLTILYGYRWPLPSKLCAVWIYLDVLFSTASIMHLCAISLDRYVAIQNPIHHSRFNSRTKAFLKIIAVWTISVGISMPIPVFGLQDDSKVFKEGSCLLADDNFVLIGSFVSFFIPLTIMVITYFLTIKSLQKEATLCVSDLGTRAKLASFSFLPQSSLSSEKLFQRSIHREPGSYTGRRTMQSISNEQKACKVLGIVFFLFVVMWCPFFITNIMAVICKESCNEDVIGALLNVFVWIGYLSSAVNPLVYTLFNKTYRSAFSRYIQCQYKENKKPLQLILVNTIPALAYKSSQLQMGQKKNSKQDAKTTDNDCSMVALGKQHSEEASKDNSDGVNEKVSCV

human 5-HT2C receptor [5] = molecular target: T2, human 5-HT2C receptor (Homo sapiens, UniProt P28335); assay: Competition binding to the human 5-HT2C receptor ([3H]mesulergine, HeLa-5-HT2C membranes)
T2 construct: expressed in transfected cells; host or cells: HeLa (HeLa-5-HT2C cell line)
T2 sequence (P28335 33-458): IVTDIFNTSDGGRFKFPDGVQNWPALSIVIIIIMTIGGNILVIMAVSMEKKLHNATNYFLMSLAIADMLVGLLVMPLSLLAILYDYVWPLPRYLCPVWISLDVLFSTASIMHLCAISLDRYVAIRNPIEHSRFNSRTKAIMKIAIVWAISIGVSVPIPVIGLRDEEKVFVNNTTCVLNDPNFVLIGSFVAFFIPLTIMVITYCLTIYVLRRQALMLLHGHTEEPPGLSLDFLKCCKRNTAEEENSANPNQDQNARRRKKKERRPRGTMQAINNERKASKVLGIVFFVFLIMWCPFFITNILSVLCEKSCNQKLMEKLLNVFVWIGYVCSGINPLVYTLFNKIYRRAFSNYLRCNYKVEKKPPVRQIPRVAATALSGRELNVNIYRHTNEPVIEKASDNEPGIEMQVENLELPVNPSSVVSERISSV

5-HT2A receptor [6] = details: described by Nichols; cited from earlier work; remark: listed apart in the source
human 5-HT2A receptor [7] = molecular target: T1, human 5-HT2A receptor; assay: Ca2+ mobilization in CHO h5-HT2A cells; format: cell-based
human 5-HT2C receptor [8] = molecular target: T2, human 5-HT2C receptor; assay: Ca2+ mobilization in HeLa h5-HT2C cells; format: cell-based
human 5-HT2B receptor = human 5-HT2B receptor (Homo sapiens, UniProt P41595); assay: Competition binding to the human 5-HT2B receptor ([3H]LSD, CHO-5-HT2B membranes)
Chain of human 5-HT2B receptor (P41595 whole entry): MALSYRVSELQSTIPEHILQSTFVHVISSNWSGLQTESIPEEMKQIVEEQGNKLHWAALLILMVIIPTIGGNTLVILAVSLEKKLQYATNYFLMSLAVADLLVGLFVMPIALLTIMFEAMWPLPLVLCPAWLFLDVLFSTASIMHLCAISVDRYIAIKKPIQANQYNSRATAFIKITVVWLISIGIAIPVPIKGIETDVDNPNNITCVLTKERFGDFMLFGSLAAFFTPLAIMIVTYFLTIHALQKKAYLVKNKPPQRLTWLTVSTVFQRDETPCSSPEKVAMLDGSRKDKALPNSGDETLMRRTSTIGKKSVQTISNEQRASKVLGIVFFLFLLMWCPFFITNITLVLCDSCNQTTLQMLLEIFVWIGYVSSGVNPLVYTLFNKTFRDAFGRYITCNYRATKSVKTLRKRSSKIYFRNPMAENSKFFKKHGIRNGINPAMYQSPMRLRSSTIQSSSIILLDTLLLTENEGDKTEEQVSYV

5-HT2C receptor [9] = molecular target: 5-HT2C receptor; set-up: method as in PMID 27216487; details: reported affinity; cited from earlier work
5-HT2A receptor [10] = molecular target: 5-HT2A receptor; set-up: method as in PMID 27216487; details: reported affinity; cited from earlier work
5-HT2C receptor [11] = details: cited from earlier work
5-HT2A receptors = details: cited from earlier work
[12] = relative efficacy, % of response to 5-HT

Oc1ccccc1CNCCc1c[nH]c2ccccc12 (as salt: hydrochloride) [Compound 2, N-(2-Hydroxybenzyl)-[2-(1H-indol-3-yl)ethyl]amine] gave a melting point of 222 to 223 °C.
For CCOc1ccc(CNCCc2c[nH]c3ccccc23)cc1 (as salt: hydrochloride) [Compound 15, N-(4-Ethoxybenzyl)-[2-(1H-indol-3-yl)ethyl]amine], the melting point was 206 to 208 °C.
With COc1cccc(CNCCc2c[nH]c3ccccc23)c1OC (as salt: hydrochloride) [Compound 20, N-(2,3-Dimethoxybenzyl)-[2-(1H-indol-3-yl)ethyl]amine] the melting point was 210 to 212 °C.
Oc1ccc(F)cc1CNCCc1c[nH]c2ccccc12 (as salt: hydrochloride) [Compound 24, N-(5-Fluoro-2-hydroxybenzyl)-[2-(1H-indol-3-yl)ethyl]amine] showed a melting point of 185 to 186 °C.
Work on COc1ccc(F)cc1CNCCc1c[nH]c2ccccc12 (as salt: hydrochloride) [Compound 25, N-(5-Fluoro-2-methoxybenzyl)-[2-(1H-indol-3-yl)ethyl]amine] yielded a melting point of 179 to 180 °C.
Oc1ccc(Br)cc1CNCCc1c[nH]c2ccccc12 (as salt: hydrochloride) [Compound 26, N-(5-Bromo-2-hydroxybenzyl)-[2-(1H-indol-3-yl)ethyl]amine] gave a melting point of 188 to 189 °C.
For COc1ccc(Br)cc1CNCCc1c[nH]c2ccccc12 (as salt: hydrochloride) [Compound 27, N-(5-Bromo-2-methoxybenzyl)-[2-(1H-indol-3-yl)ethyl]amine], the melting point was 192 to 193 °C.
For COc1ccc(Cl)cc1CNCCc1c[nH]c2ccccc12 (as salt: hydrochloride) [Compound 28, N-(5-Chloro-2-methoxybenzyl)-[2-(1H-indol-3-yl)ethyl]amine], the melting point was 184 to 185 °C.
With COc1ccc(OC)c(CNCCc2c[nH]c3ccccc23)c1 (as salt: hydrochloride) [Compound 29, N-(2,5-Dimethoxybenzyl)-[2-(1H-indol-3-yl)ethyl]amine] the melting point was 175 to 176 °C.
Work on O=[N+]([O-])c1ccc(O)c(CNCCc2c[nH]c3ccccc23)c1 (as salt: hydrochloride) [Compound 30, N-(5-Nitro-2-hydroxybenzyl)-[2-(1H-indol-3-yl)ethyl]amine] yielded a melting point of 194 to 196 °C.
With Oc1cc(Br)ccc1CNCCc1c[nH]c2ccccc12 (as salt: hydrochloride) [Compound 31, N-(4-Bromo-2-hydroxybenzyl)-[2-(1H-indol-3-yl)ethyl]amine] the melting point was 192 to 194 °C.
For COc1ccc(CNCCc2c[nH]c3ccccc23)c(OC)c1 (as salt: hydrochloride) [Compound 32, N-(2,4-Dimethoxybenzyl)-[2-(1H-indol-3-yl)ethyl]amine], the melting point was 184 to 186 °C.
Oc1cccc(Br)c1CNCCc1c[nH]c2ccccc12 (as salt: hydrochloride) [Compound 33, N-(6-Bromo-2-hydroxybenzyl)-[2-(1H-indol-3-yl)ethyl]amine] gave a melting point of 195 to 196 °C.
Oc1c(Br)cc(Br)cc1CNCCc1c[nH]c2ccccc12 (as salt: hydrochloride) [Compound 35, N-(3,5-Dibromo-2-hydroxybenzyl)-[2-(1H-indol-3-yl)ethyl]amine] showed a melting point of 183 to 184 °C.
Molecule COc1cccc(CNCCc2c[nH]c3ccccc23)c1O (as salt: succinate) [Compound 19, N-(2-Hydroxy-3-methoxybenzyl)-[2-(1H-indol-3-yl)ethyl]amine] has a melting point of 109 to 111 °C.
Work on Oc1c(Br)cccc1CNCCc1c[nH]c2ccccc12 (as salt: succinate) [Compound 21, N-(3-Bromo-2-hydroxybenzyl)-[2-(1H-indol-3-yl)ethyl]amine] yielded a melting point of 141 to 142 °C.
In the case of Oc1c(F)cccc1CNCCc1c[nH]c2ccccc12 (as salt: succinate) [Compound 22, N-(3-Fluoro-2-hydroxybenzyl)-[2-(1H-indol-3-yl)ethyl]amine], the melting point is reported as 151 to 152 °C.
Molecule Oc1cccc(F)c1CNCCc1c[nH]c2ccccc12 (as salt: succinate) [Compound 34, N-(6-Fluoro-2-hydroxybenzyl)-[2-(1H-indol-3-yl)ethyl]amine] has a melting point of 159 to 161 °C.
For COc1cc(CCNCc2ccccc2OC)c(OC)cc1I [Compound 25I-NBOMe, 4-iodo-2,5-dimethoxy-N-(2-methoxybenzyl)phenethylamine, reference compound], the “ED50 in the mouse head twitch response (HTR) assay” value (head twitch response [1]) is listed as 0.078 mg/kg, the “fold higher in vivo potency (HTR) than compound 38” value (head twitch response [2]) is listed as 40 fold and the Ki (5-HT2A receptor [3]) is listed as 0.52 nM.
For COc1ccc2[nH]cc(CCNCc3ccccc3OC)c2c1 [Compound 38, N-(2-Methoxybenzyl)-[2-(5-methoxy-1H-indol-3-il)ethyl]amine], the “Selectivity 5-HT2A/2C (binding)” value (human 5-HT2A receptor [4]; from Ki values, Table 1) was 1.55, the Ki (human 5-HT2A receptor [4]; human receptor, [3H]ketanserin displacement, no unit in the table, nM, read-out: 5-HT2A Ki (in parentheses) (converted)) was 44.7 nM and the “Selectivity 5-HT2C/2A (binding, in parentheses)” value (human 5-HT2C receptor [5]; from Ki values, Table 1) was 0.65. The Ki (human 5-HT2C receptor [5]; human receptor, [3H]mesulergine displacement, no unit in the table, nM, read-out: 5-HT2C Ki (in parentheses) (converted)) was 69.2 nM, the “5-HT2A Emax” value (5-HT2A receptor [6]) was 81% and the EC50 (5-HT2A receptor [6]) was 1.9 nM. The “5-HT2A pEC50” value (human 5-HT2A receptor [7]; Ca2+ mobilization, pEC50 ± SEM) was 8.70 ± 0.20, the EC50 (human 5-HT2A receptor [7]; Ca2+ mobilization, no unit in the table, nM, read-out: 5-HT2A EC50 (in parentheses) (converted)) was 2 nM and 1.99 nM and the “Selectivity 5-HT2A/2C (functional)” value (human 5-HT2A receptor [7]; from EC50 values, Table 2) was 1.91. For the same molecule, the “5-HT2A % Emax” value (human 5-HT2A receptor [7]; [12]) was 83.66 ± 3.42%, the Emax (human 5-HT2A receptor [7]; [12]) was 84% and the EC50 (human 5-HT2C receptor [8]; Ca2+ mobilization, no unit in the table, nM, read-out: 5-HT2C EC50 (in parentheses) (converted)) was 3.8 nM. For the same molecule, the Emax (human 5-HT2C receptor [8]; HeLa, read-out: 5-HT2C % Emax) was 88.7 ± 4.22%, the “Selectivity 5-HT2C/2A (functional, in parentheses)” value (human 5-HT2C receptor [8]; from EC50 values, Table 2) was 0.53 and the “ED50 in the mouse head twitch response (HTR) assay” value (head twitch response [1]) was 3.15 mg/kg. For the same molecule, the Ki (human 5-HT2B receptor) was 15.9 nM and the Ki (5-HT2A receptor [3]) was 16.6 nM.
In the case of CC(C)N(CCc1c[nH]c2ccccc12)C(C)C [N,N-diisopropyltryptamine], the Ki (5-HT2C receptor [9]) is listed as 6500 nM and the Ki (5-HT2A receptor [10]) is listed as 1200 nM.
For CN(C)CCc1c[nH]c2ccccc12 [N,N-dimethyltryptamine], the Ki (5-HT2C receptor [9]) is listed as 424 nM and the Ki (5-HT2A receptor [10]) is listed as 237 nM.
In the case of COc1ccc2[nH]cc(CCN(C)C(C)C)c2c1 [N-isopropyl-N-methyl-5-methoxytryptamine], the Ki (5-HT2C receptor [9]) is given as 1300 nM and the Ki (5-HT2A receptor [10]) is given as 165 nM.
In the case of C[C@H]1CNCCc2ccc(Cl)cc21 [lorcaserin, 1(R)-8-chloro-1-methyl.2,3,4,5-tetrahydro-(1H)-3-benzazepine], the “agonist character at 5-HT2C (in words)” value (5-HT2C receptor [11]) is listed as “full 5-HT2C agonist”, the “pEC50(2A)” value (5-HT2A receptors; Fig 6) is listed as 6.8 and the “efficacy at 5-HT2A receptors” value (5-HT2A receptors; partial agonist) is listed as “about 70%”.
